In PubChem BioAssay (NCI):
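Interpolation was linear, between the two tested concentrations surrounding the appropriate level; five concentrations were tested over 48 hours in 96-well plates. TGI marks complete inhibition of growth.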

Assays:
Assay in all cases: NCI tumour cell line growth inhibition, 48 h
[1] = test system: DMS 273 small cell lung
[2] = test system: HOP-62 NSCLC
[3] = test system: NCI-H460 lung
[4] = test system: OVCAR-8 ovarian
[5] = test system: SK-MEL-2 melanoma
[6] = test system: SF-539 CNS
[7] = test system: MALME-3M melanoma
[8] = test system: U251 CNS
[9] = test system: P388/ADR leukemia
[10] = test system: KM12 colon
[11] = test system: NCI/ADR-RES ovarian
[12] = test system: CAKI-1 renal
[13] = test system: SF-268 CNS
[14] = test system: P388 leukemia
[15] = test system: SR leukemia
[16] = test system: M14 melanoma
[17] = test system: HS 578T breast
[18] = test system: UACC-62 melanoma
[19] = test system: A549 NSCLC
[20] = test system: 786-0 renal
[21] = test system: NCI-H23 lung
[22] = test system: SK-MEL-5 melanoma
[23] = test system: OVCAR-3 ovarian
[24] = test system: UACC-257 melanoma
[25] = test system: IGROV1 ovarian
[26] = test system: BT-549 breast
[27] = test system: COLO 205 colon
[28] = test system: HT29 colon
[29] = test system: HCT-116 colon
[30] = test system: DMS 114 small cell lung
[31] = test system: MOLT-4 leukemia
[32] = test system: OVCAR-5 ovarian
[33] = test system: SK-MEL-28 melanoma
[34] = test system: MDA-MB-231 breast
[35] = test system: SNB-78 CNS
[36] = test system: NCI-H522 lung
[37] = test system: XF 498 CNS
[38] = test system: SNB-19 CNS
[39] = test system: SF-295 CNS
[40] = test system: T-47D breast
[41] = test system: HOP-18 NSCLC
[42] = test system: SN12K1 renal
[43] = test system: EKVX NSCLC
[44] = test system: MCF7 breast
[45] = test system: DLD-1 colon
[46] = test system: LOX IMVI melanoma
[47] = test system: PC-3 prostate
[48] = test system: SN12C renal
[49] = test system: ACHN renal
[50] = test system: NCI-H226 lung
[51] = test system: K-562 leukemia
[52] = test system: HCT-15 colon
[53] = test system: UO-31 renal
[54] = test system: HCC-2998 colon
[55] = test system: SNB-75 CNS
[56] = test system: A498 renal
[57] = test system: M19-MEL melanoma
[58] = test system: TK-10 renal
[59] = test system: SK-OV-3 ovarian
[60] = test system: CCRF-CEM leukemia
[61] = test system: KM20L2 colon
[62] = test system: RPMI-8226 leukemia
[63] = test system: HOP-92 NSCLC
[64] = test system: DU-145 prostate
[65] = test system: MDA-MB-435
[66] = test system: SW-620 colon
[67] = test system: HL-60(TB) leukemia

**Q.** For `CCc1ccccc1N1CCN(C(=O)c2cc(OC)c(OC)c(OC)c2)CC1`, which TGI [1] is on record?
**A.** Its TGI is greater than 100 µM.

**Q.** And the TGI [2]?
**A.** The TGI was greater than 46.2 µM.

**Q.** And the TGI [3]?
**A.** The TGI was 2.8 µM.

**Q.** What about the TGI [4] of the same compound?
**A.** The TGI was 13.6 µM.

**Q.** And the TGI [5]?
**A.** Its TGI is 2.78 µM.

**Q.** What about the TGI [6] of the same compound?
**A.** Its TGI is 0.12 µM.

**Q.** What about the TGI [7] of the same compound?
**A.** The TGI was 55.9 µM.

**Q.** And the TGI [8]?
**A.** Its TGI is 4.14 µM.

**Q.** What about the TGI [9] of the same compound?
**A.** The TGI was 4.22 µM.

**Q.** And the TGI [10]?
**A.** The TGI was 2.64 µM.

**Q.** What about the TGI [11] of the same compound?
**A.** The TGI was 1.63 µM.

**Q.** And the TGI [12]?
**A.** Its TGI is 43 µM.

**Q.** What about the TGI [13] of the same compound?
**A.** The TGI was greater than 100 µM.

**Q.** And the TGI [14]?
**A.** The TGI was 0.367 µM.

**Q.** What about the TGI [15] of the same compound?
**A.** The TGI was greater than 55.1 µM.

**Q.** And the TGI [16]?
**A.** The TGI was 2.6 µM.

**Q.** What about the TGI [17] of the same compound?
**A.** The TGI was 0.0608 µM.

**Q.** What about the TGI [18] of the same compound?
**A.** The TGI was greater than 68.8 µM.

**Q.** And the TGI [19]?
**A.** Its TGI is 72.4 µM.

**Q.** What about the TGI [20] of the same compound?
**A.** The TGI was greater than 100 µM.

**Q.** What about the TGI [21] of the same compound?
**A.** The TGI was 23.3 µM.

**Q.** And the TGI [22]?
**A.** The TGI was 3.79 µM.

**Q.** And the TGI [23]?
**A.** The TGI was 0.463 µM.

**Q.** What about the TGI [24] of the same compound?
**A.** Its TGI is greater than 73.2 µM.

**Q.** What about the TGI [25] of the same compound?
**A.** The TGI was greater than 51.4 µM.

**Q.** What about the TGI [26] of the same compound?
**A.** The TGI was 5.87 µM.

**Q.** What about the TGI [27] of the same compound?
**A.** The TGI was 0.108 µM.

**Q.** What about the TGI [28] of the same compound?
**A.** The TGI was 0.617 µM.

**Q.** And the TGI [29]?
**A.** Its TGI is 16.5 µM.

**Q.** And the TGI [30]?
**A.** The TGI was 0.692 µM.

**Q.** What about the TGI [31] of the same compound?
**A.** Its TGI is 41.4 µM.

**Q.** And the TGI [32]?
**A.** The TGI was greater than 100 µM.

**Q.** And the TGI [33]?
**A.** The TGI was greater than 70.2 µM.

**Q.** And the TGI [34]?
**A.** Its TGI is greater than 100 µM.

**Q.** What about the TGI [35] of the same compound?
**A.** Its TGI is greater than 100 µM.

**Q.** And the TGI [36]?
**A.** Its TGI is 0.029 µM.

**Q.** What about the TGI [37] of the same compound?
**A.** The TGI was 17.9 µM.

**Q.** And the TGI [38]?
**A.** The TGI was greater than 56 µM.

**Q.** What about the TGI [39] of the same compound?
**A.** The TGI was 0.0341 µM.

**Q.** And the TGI [40]?
**A.** Its TGI is 67.9 µM.

**Q.** And the TGI [41]?
**A.** The TGI was greater than 91.9 µM.

**Q.** What about the TGI [42] of the same compound?
**A.** Its TGI is 0.194 µM.

**Q.** What about the TGI [43] of the same compound?
**A.** The TGI was 20.9 µM.

**Q.** What about the TGI [44] of the same compound?
**A.** Its TGI is 35 µM.

**Q.** What about the TGI [45] of the same compound?
**A.** Its TGI is greater than 100 µM.

**Q.** And the TGI [46]?
**A.** The TGI was 29.3 µM.

**Q.** And the TGI [47]?
**A.** The TGI was greater than 9.26 µM.

**Q.** What about the TGI [48] of the same compound?
**A.** Its TGI is greater than 100 µM.

**Q.** And the TGI [49]?
**A.** The TGI was 66.4 µM.

**Q.** And the TGI [50]?
**A.** Its TGI is 5.6 µM.

**Q.** What about the TGI [51] of the same compound?
**A.** Its TGI is 39.4 µM.

**Q.** What about the TGI [52] of the same compound?
**A.** The TGI was greater than 23.6 µM.

**Q.** And the TGI [53]?
**A.** The TGI was 63.4 µM.

**Q.** And the TGI [54]?
**A.** The TGI was 2.09 µM.

**Q.** And the TGI [55]?
**A.** Its TGI is greater than 100 µM.

**Q.** And the TGI [56]?
**A.** The TGI was 0.985 µM.

**Q.** What about the TGI [57] of the same compound?
**A.** Its TGI is greater than 100 µM.

**Q.** And the TGI [58]?
**A.** The TGI was greater than 93.3 µM.

**Q.** And the TGI [59]?
**A.** The TGI was 4.55 µM.

**Q.** What about the TGI [60] of the same compound?
**A.** The TGI was greater than 100 µM.

**Q.** What about the TGI [61] of the same compound?
**A.** The TGI was 0.307 µM.

**Q.** What about the TGI [62] of the same compound?
**A.** Its TGI is 23.1 µM.

**Q.** And the TGI [63]?
**A.** The TGI was 12.3 µM.

**Q.** And the TGI [64]?
**A.** The TGI was 0.715 µM.

**Q.** And the TGI [65]?
**A.** The TGI was less than 0.0113 µM.

**Q.** And the TGI [66]?
**A.** The TGI was greater than 100 µM.

**Q.** What about the TGI [67] of the same compound?
**A.** Its TGI is 1.62 µM.
